From PMC6934184, “Selective DNA-PKcs inhibition extends the therapeutic index of localized radiotherapy and chemotherapy” (The Journal of Clinical Investigation, 2019)

Target: T1, NEK2 (Homo sapiens, UniProt P51955)
T1 construct: purchased Thermo Fisher Scientific (Life Technologies) SelectScreen
Test: SelectScreen Z'LYTE
Type: biochemical
How it was run: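 NU5455 was profiled across the SelectScreen Broad panel of kinase activity and binding assays. Z'LYTE reactions such as CSF1R ran at apparent Km ATP, while the Adapta CAMK1 assay used ATP listed as 10. Values are given as percent.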

T1 sequence (P51955 whole entry): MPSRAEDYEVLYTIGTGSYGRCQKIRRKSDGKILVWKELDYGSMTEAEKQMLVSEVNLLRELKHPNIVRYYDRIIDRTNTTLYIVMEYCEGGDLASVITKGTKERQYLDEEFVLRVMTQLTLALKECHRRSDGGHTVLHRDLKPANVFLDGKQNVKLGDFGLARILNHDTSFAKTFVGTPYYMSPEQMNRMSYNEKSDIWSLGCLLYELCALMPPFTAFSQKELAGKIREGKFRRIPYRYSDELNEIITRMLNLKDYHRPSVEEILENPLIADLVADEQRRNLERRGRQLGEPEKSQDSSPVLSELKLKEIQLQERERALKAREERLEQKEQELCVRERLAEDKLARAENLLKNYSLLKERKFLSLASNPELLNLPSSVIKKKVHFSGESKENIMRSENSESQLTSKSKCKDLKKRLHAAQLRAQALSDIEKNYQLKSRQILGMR

CN(C(=O)CN1CCOCC1)c1ccc2sc3c(-c4cccc5c(=O)cc(N6CC7CCC(C6)O7)oc45)cccc3c2c1 [NU5455]
inhibition at 1 µM: 17.8%
